Key:
AtSgpp (MBP-AtSgpp) [1] = molecular target: T1, AtSgpp (MBP-AtSgpp) (Arabidopsis thaliana, UniProt Q9ZVJ5); assay: phosphate release, molybdate/ascorbic acid assay, Lineweaver-Burk; format: biochemical; settings: 20 mM Tris-HCl pH 7.0, 5 mM MgCl2, 32 °C, MBP fusion, brackets: 95% CI and [SD]
T1 construct: gene SGPP; full-length coding region (735 bp EcoRI/SalI fragment) in pMAL-c2x; N-terminal MBP fusion kept, vector residues Ile-Ser-Glu-Phe before Met1; expressed in E. coli TB1 with pSBETa; amylose resin
T1 sequence (Q9ZVJ5 1-244): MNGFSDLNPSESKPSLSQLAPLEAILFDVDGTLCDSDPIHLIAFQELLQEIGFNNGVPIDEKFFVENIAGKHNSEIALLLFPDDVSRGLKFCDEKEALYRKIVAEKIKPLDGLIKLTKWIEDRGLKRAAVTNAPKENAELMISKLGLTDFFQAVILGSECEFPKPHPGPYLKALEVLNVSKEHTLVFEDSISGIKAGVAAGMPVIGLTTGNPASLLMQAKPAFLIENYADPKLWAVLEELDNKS
From the text: (§1) phosphate release, molybdate/ascorbic acid assay, Lineweaver-Burk on AtSgpp (MBP-AtSgpp)

AtSgpp (MBP-AtSgpp) [2] = molecular target: T2, AtSgpp (MBP-AtSgpp) (Arabidopsis thaliana, UniProt Q9ZVJ5, DEL53-55); assay: as above; format: biochemical; settings: 20 mM Tris-HCl pH 7.0, 5 mM MgCl2, 32 °C, MBP fusion, brackets: 95% CI and [SD]
T2 construct: gene SGPP; full-length coding region (735 bp EcoRI/SalI fragment) in pMAL-c2x; N-terminal MBP fusion kept, vector residues Ile-Ser-Glu-Phe before Met1; expressed in E. coli TB1 with pSBETa; amylose resin
T2 sequence (Q9ZVJ5 with tags, fused parts or gaps DEL53-55): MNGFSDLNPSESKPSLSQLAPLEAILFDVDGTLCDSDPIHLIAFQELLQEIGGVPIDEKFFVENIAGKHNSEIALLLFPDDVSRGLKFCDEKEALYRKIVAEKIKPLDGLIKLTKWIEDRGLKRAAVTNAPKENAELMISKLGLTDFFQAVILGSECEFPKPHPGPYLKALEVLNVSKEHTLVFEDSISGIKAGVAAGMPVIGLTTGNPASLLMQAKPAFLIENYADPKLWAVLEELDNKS
From the text: as §1

Compound | apparent Km (AtSgpp (MBP-AtSgpp) [1]) | apparent Km (AtSgpp (MBP-AtSgpp) [2])
O=P(O)(O)OC[C@H]1OC(O)[C@@H](O)[C@@H](O)[C@@H]1O (stereo partly drawn) [D-mannose-6-phosphate] | 4.9 (4.2–5.6) × 10^−3 [0.6] M | 6.7 (6.6–6.8) × 10^−3 [0.1] M
O=P(O)(O)OCC(O)CO (racemic) [DL-glycerol-3-phosphate] | 7.3 (7.1–7.5) × 10^−3 [0.2] M | 14 (13.7–14.3) × 10^−3 [0.3] M
O=P(O)(O)OC[C@H]1OC(O)[C@H](O)[C@@H]1O (stereo partly drawn) [D-ribose-5-phosphate] | 3.6 (3.5–3.7) × 10^−3 [0.1] M | 3.7 (3.5–3.9) × 10^−3 [0.2] M
O=P(O)(O)OC[C@H]1OC(O)C[C@@H](O)[C@@H]1O (stereo partly drawn) [2-deoxy-D-glucose-6-phosphate] | 4.6 (4–5.2) × 10^−3 [0.5] M | 4.7 (4.5–4.9) × 10^−3 [0.2] M

Results, then the molecule that gave them:

apparent Km (AtSgpp (MBP-AtSgpp) [1]) | apparent Km (AtSgpp (MBP-AtSgpp) [2]) | Compound
7.7 (7.3–8.1) × 10^−3 [0.4] M | 10 (9.5–10.5) × 10^−3 [0.4] M | O=P(O)(O)OC[C@H]1OC(O)(CO)[C@@H](O)[C@@H]1O (stereo partly drawn) [D-fructose-6-phosphate]
7.1 (6.8–7.4) × 10^−3 [0.3] M | 8.3 (8–8.6) × 10^−3 [0.3] M | O=P(O)(O)OC[C@H]1OC(O)[C@H](O)[C@@H](O)[C@@H]1O (stereo partly drawn) [D-glucose-6-phosphate]
